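Protocol summary: plate cells (96-well), add compound at 5 concentrations, incubate 48 h, interpolate endpoints linearly. The concentration for 50% growth inhibition is given as GI50.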 Activity calls are given as the source filed them. Rule as the data show it: active = GI50 up to about 1.1 µM and inactive = higher.
What was measured:
Test in all cases: NCI anticancer screen, dose series, 48 h
SF-295 = test system: SF-295
Malme-3M = test system: Malme-3M
HCC 2998 = test system: HCC 2998
OVCAR-5 = test system: OVCAR-5
SN12C = test system: SN12C
MCF7 = test system: MCF7
EKVX = test system: EKVX
HCT-15 = test system: HCT-15
UACC-62 = test system: UACC-62
SK-OV-3 = test system: SK-OV-3
SK-MEL-5 = test system: SK-MEL-5
CAKI-1 = test system: CAKI-1
SNB-19 = test system: SNB-19
OVCAR-4 = test system: OVCAR-4
OVCAR-3 = test system: OVCAR-3
PC-3 = test system: PC-3
Hs-578T = test system: Hs-578T
UO-31 = test system: UO-31
CCRF-CEM = test system: CCRF-CEM

SMILES	GI50 (SF-295)	GI50 (Malme-3M)	GI50 (HCC 2998)	GI50 (OVCAR-5)	GI50 (SN12C)	GI50 (MCF7)	GI50 (EKVX)	GI50 (HCT-15) [µM]	GI50 (UACC-62)	GI50 (SK-OV-3)	GI50 (SK-MEL-5)	GI50 (CAKI-1)	GI50 (SNB-19)	GI50 (OVCAR-4)	GI50 (OVCAR-3)	GI50 (PC-3)	GI50 (Hs-578T)	GI50 (UO-31)	GI50 (CCRF-CEM)
COC(=O)C1(C)CC2C(C)(CCC3(C)C4=CC=C5C(=CC(=O)C(O)=C5C)C4(C)CCC23C)CC1O (stereo not drawn)	1.78 µM (inactive)	0.762 µM (active)	1.56 µM (inactive)	1.73 µM (inactive)	1.49 µM (inactive)	1.6 µM (inactive)	1.3 µM (inactive)	0.334	0.962 µM (active)	2.07 µM (inactive)	1.66 µM (inactive)	0.902 µM (active)	1.59 µM (inactive)	1.61 µM (inactive)	0.774 µM (active)	1.13 µM (inactive)	1.07 µM (active)	1.35 µM (inactive)	0.157 µM (active)
O=C1c2cc3c(cc2CC12Cc1cc4c(cc1C2=O)CCC4)CCC3	> 100 µM (inactive)	> 100 µM (inactive)	> 100 µM (inactive)	48.3 µM (inactive)	> 100 µM (inactive)	> 100 µM (inactive)	> 100 µM (inactive)	> 100	> 100 µM (inactive)	> 100 µM (inactive)	> 100 µM (inactive)	> 100 µM (inactive)	> 100 µM (inactive)	–	> 100 µM (inactive)	> 100 µM (inactive)	> 100 µM (inactive)	> 100 µM (inactive)	> 100 µM (inactive)
CCNCCCNc1c2ccccc2nc2ccccc12	0.498 µM (active)	0.406 µM (active)	0.239 µM (active)	0.278 µM (active)	0.429 µM (active)	0.193 µM (active)	0.569 µM (active)	0.366	0.387 µM (active)	1.33 µM (inactive)	0.375 µM (active)	0.334 µM (active)	0.499 µM (active)	0.478 µM (active)	0.326 µM (active)	0.245 µM (active)	0.653 µM (active)	0.334 µM (active)	0.514 µM (active)
NNC(=O)CSc1nnc(CCCCCCCCc2nnc(SCC(=O)NN)o2)o1	> 100 µM (inactive)	> 100 µM (inactive)	> 100 µM (inactive)	> 100 µM (inactive)	> 100 µM (inactive)	> 100 µM (inactive)	> 100 µM (inactive)	> 100	> 100 µM (inactive)	> 100 µM (inactive)	> 100 µM (inactive)	> 100 µM (inactive)	> 100 µM (inactive)	> 100 µM (inactive)	–	> 100 µM (inactive)	> 100 µM (inactive)	> 100 µM (inactive)	> 100 µM (inactive)
CCN(CC)c1ccc2cc(C(=O)Nc3ccccc3)c(=N)oc2c1	> 100 µM (inactive)	> 100 µM (inactive)	> 100 µM (inactive)	> 100 µM (inactive)	> 100 µM (inactive)	> 100 µM (inactive)	> 100 µM (inactive)	> 100	> 100 µM (inactive)	> 100 µM (inactive)	> 100 µM (inactive)	> 100 µM (inactive)	> 100 µM (inactive)	> 100 µM (inactive)	–	> 100 µM (inactive)	> 100 µM (inactive)	> 100 µM (inactive)	> 100 µM (inactive)
CC1CC(C)(C)CC(OCCN2CCCCC2)(c2ccccc2)C1 (stereo not drawn)	10.7 µM (inactive)	10.4 µM (inactive)	–	4.19 µM (inactive)	12 µM (inactive)	11.2 µM (inactive)	5.51 µM (inactive)	10.2	15.6 µM (inactive)	14.7 µM (inactive)	10 µM (inactive)	12.7 µM (inactive)	12.9 µM (inactive)	11.3 µM (inactive)	10.4 µM (inactive)	12.2 µM (inactive)	13.3 µM (inactive)	7.16 µM (inactive)	6.5 µM (inactive)
BrCc1ccc(CBr)c2c1-c1c(CBr)ccc3ccc(CBr)c-2c13	> 100 µM (inactive)	> 100 µM (inactive)	> 100 µM (inactive)	> 100 µM (inactive)	> 100 µM (inactive)	> 100 µM (inactive)	> 100 µM (inactive)	> 100	> 100 µM (inactive)	> 100 µM (inactive)	–	–	> 100 µM (inactive)	> 100 µM (inactive)	> 100 µM (inactive)	36.6 µM (inactive)	53.2 µM (inactive)	> 100 µM (inactive)	–
COc1cccc2c1NC(=O)Cc1c-2[nH]c2ccccc12	> 100 µM (inactive)	> 100 µM (inactive)	> 100 µM (inactive)	> 100 µM (inactive)	–	88.5 µM (inactive)	> 100 µM (inactive)	73.8	> 100 µM (inactive)	> 100 µM (inactive)	41.9 µM (inactive)	> 100 µM (inactive)	–	98.2 µM (inactive)	> 100 µM (inactive)	> 100 µM (inactive)	87.7 µM (inactive)	> 100 µM (inactive)	> 100 µM (inactive)
